Design: species or system patients
Settings: in vivo

Question: Which “Time to alleviation of symptoms, shorter in treated vs non‐treated patients” value does the source give for `CCOC(=O)C1=C[C@@H](OC(CC)CC)[C@H](NC(C)=O)[C@@H](N)C1` [oseltamivir] here?
Answer: The value was 1 days.

From article PMC5820429 (Influenza and Other Respiratory Viruses, 2018)
